The record followed here is patent US20260022094A1, “Compounds for the Treatment of Neurodegenerative Diseases” (Celgene Corporation, priority 2022, published 2026).

T1 sequence (Q9H228 whole entry): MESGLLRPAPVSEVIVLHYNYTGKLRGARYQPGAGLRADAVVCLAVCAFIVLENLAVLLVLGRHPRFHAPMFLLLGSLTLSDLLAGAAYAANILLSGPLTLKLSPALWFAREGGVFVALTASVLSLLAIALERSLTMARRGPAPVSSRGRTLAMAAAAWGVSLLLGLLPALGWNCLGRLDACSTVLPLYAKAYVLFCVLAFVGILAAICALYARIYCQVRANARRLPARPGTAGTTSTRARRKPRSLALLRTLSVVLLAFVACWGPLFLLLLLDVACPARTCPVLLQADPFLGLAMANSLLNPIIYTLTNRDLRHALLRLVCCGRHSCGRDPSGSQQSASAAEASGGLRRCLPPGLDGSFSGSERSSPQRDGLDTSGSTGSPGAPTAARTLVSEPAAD

The test addresses T1, S1P5 receptors (Homo sapiens, UniProt Q9H228).
T1 construct: expressed in transfected cells; host or cells: CHO cells (membranes)
The test is described as follows: [35S]-GTPγS binding assay on CHO-S1P5 membranes (S1P5 agonism). Format: biochemical. Particulars: membranes of CHO cells expressing recombinant S1P5; measure of S1P5 agonism. The essentials:
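Membranes from CHO cells expressing recombinant S1P5 in HEPES/MgCl2/NaCl/EDTA buffer, pH 7.4, with 0.1% fatty acid-free BSA, 30 μg/mL saponin, GDP and WGA SPA beads. Compound was preincubated with membranes for 30 min at RT, then [35S]-GTPγS was added for 40 min at RT. Bound label was counted by SPA, with S1P as control.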
For `CC1(O)CN(Cc2ccc(C3CN(c4c(Cl)cccc4Cl)C3)cc2F)C1` [Compound 61, 1-(4-(1-(2,6-dichlorophenyl)azetidin-3-yl)-2-fluorobenzyl)-3-methylazetidin-3-ol], the EC50 lay in the range of 100 to 1000 nM.
Regarding `Cc1cc(N2CC(c3c(Cl)cccc3Cl)C2)cc(C)c1CN1CC(C)(O)C1` [Compound 37, 1-(4-(3-(2,6-dichlorophenyl)azetidin-1-yl)-2,6-dimethylbenzyl)-3-methylazetidin-3-ol], the EC50 lay in the range of 1 to 10 nM.
Then `CC1(O)CN(Cc2ccc(C3CN(c4c(Cl)cccc4Cl)C3)cc2C2CC2)C1` [Compound 50, 1-(2-cyclopropyl-4-(1-(2,6-dichlorophenyl)azetidin-3-yl)benzyl)-3-methylazetidin-3-ol], with 10 to 100 nM.
As to `Cc1cc(CN2CC(C)(O)C2)cc(C)c1N1CC(c2c(Cl)cccc2Cl)C1` [Compound 63, 1-(4-(3-(2,6-dichlorophenyl)azetidin-1-yl)-3,5-dimethylbenzyl)-3-methylazetidin-3-ol], the half-maximal effective concentration (EC50) is 1 to 10 nM.
